# Test results taken from ChEMBL document CHEMBL3822389, “New insights into 3-(aminomethyl)naphthoquinones: Evaluation of cytotoxicity, electrochemical behavior and search for structure-activity correlation” (Bioorg Med Chem Lett, 2016).
# What was measured:
# MDA-MB-435 = experiment: Cytotoxicity against human MDA-MB-435 cells after 72 hrs by MTT assay; type: functional, cell-based; conditions: mda-mb-435
# [1] = Cytotoxicity against human HCT8 cells after 72 hrs by MTT assay; type: functional, cell-based, HCT-8; conditions: hct-8
# [2] = Cytotoxicity against human SF295 cells after 72 hrs by MTT assay; type: functional, cell-based, SF-295; conditions: Homo sapiens, SF-295, 72 h
# [3] = Cytotoxicity against human HL60 cells after 72 hrs by MTT assay; type: functional, cell-based, HL-60; conditions: Homo sapiens, HL-60, 72 h
smiles,measurement,setting,value
O=C1C(O)=C(C(NCc2ccccc2)c2ccccc2O)C(=O)c2ccccc21 (centres undefined),IC50,MDA-MB-435,18.9 µM
same,IC50,[1],15.6 µM
same,IC50,[2],23.1 µM
same,IC50,[3],3.9 µM
